Tests used:
corn rootworm larvae [1] = test: Corn rootworm greenhouse bioassay (2 gal pot); assay type: in vivo; details: Iowa scale 1-6
Excerpt: (§1) Hybrid corn seeds with and without an insecticidal coating are planted in Nebraska, Iowa, Minnesota, Wisconsin and Illinois to determine the efficacy of various coated seed treatments in standard tests. All seeds contain a Captan pretreatment whether or not a coating is applied. Additionally, an overcoat layer is applied to all coated seed which comprises the coating described in Example 2. Banded granular insecticides are applied at the manufactures label rates using granular insecticide applicators. Plot size for each treatment is two ten foot rows spaced 30 inches apart with four replications of each treatment at each location. Non-diaposing 1st instar Western Corn Rootworm larvae are side dressed on both sides of the corn plants in the row at a rate of 800 eggs per foot of row. Application of the insect larvae is made when the corn seedlings are approximately at the two leaf stage. The placement of the larvae is approximately two inches to the side of the corn plants and two inches below the soil surface. Plots are maintained with normal cultural practices until the corn plants reach the flowering stage. At late brown silk stage, 10 sequential roots from each plot are obtained. The corn stalks are cut at approximately 12 inches above the soil line. Each corn root is washed and after washing the roots are rated on a scale of 1-6 using the Iowa Root Rating Method developed at Iowa State University (Hills and Peters, 1971) and used commonly throughout the corn belt. In the rating, 1=no damage or only a few minor feeding scars; 2=feeding scars evident but no roots eaten off to within 1½ inch of the plant; 3=several roots eaten off to within 1½ inch of the plant but never the equivalent of an entire node of roots is destroyed; 4=one root node completely destroyed; 5=two root nodes completely destroyed and 6=three or more root nodes destroyed. A destroyed root is defined as a root that has been pruned to within 1½ inch of the base. […] In addition, a growth chamber and a greenhouse bioassay was used to determine the effect of insecticidal seed coating on corn rootworm control. For growth chamber assay, corn seed was planted in a 16 oz cup with garden Jiffymix, and allowed to grow for two weeks. Twenty neonate corn rootworm larvae are placed in the Jiffymix near corn roots and allowed to feed for approximately 2 weeks. The larvae are then screened out and the % mortality of the larvae is determined. Each corn root is washed and after washing the roots are rated on a scale of 1-6 using the Iowa Root Rating Method developed at Iowa State University (Hills and Peters, 1971). Some of the results are indicated below in Table 3. The greenhouse assay use 2 gallon pot with 20 mesh corn field soil. Forty corn rootworm larvae are placed in each pot when corn plant was at 4 to 5-leaf stage, and allowed to feed for 2 to 3 weeks. Each corn root is washed and after washing the roots are rated on a scale of 1-6 using the Iowa Root Rating Method developed at Iowa State University (Hills and Peters, 1971). Some of the results are indicated below in Table 3.
(§2) Maize seed is treated as described in Examples 1 and 2. A combination of methyl cellulose and polyvinyl alcohol is used as a binder and Celite 266 is used as filler for insecticide solution, which contains the compound of formula II as the insecticide. Bioassay methods are as described in Example 4. Root rating was based on the Iowa State 1-6 scale.

corn rootworm larvae [2] = test: Corn rootworm growth chamber bioassay (16 oz cup); assay type: in vivo; details: Iowa scale 1-6
Excerpt: as §1, §2

| Compound | Greenhouse (2 gal pot) Root Rating (corn rootworm larvae [1]; 0.6 mg/seed) | Greenhouse (2 gal pot) Root Rating (corn rootworm larvae [1]; 1.2 mg/seed) | Greenhouse (2 gal pot) Root Rating (corn rootworm larvae [1]; 1.5 mg/seed) | Greenhouse (2 gal pot) Root Rating (corn rootworm larvae [1]; 2.0 mg/seed) | Growth Chamber (16 oz cup) Root Rating (corn rootworm larvae [2]; 0.01 mg/seed (combination: plus Raze 0.13 mg/seed)) | Growth Chamber (16 oz cup) Root Rating (corn rootworm larvae [2]; 0.03 mg/seed) | Growth Chamber (16 oz cup) Root Rating (corn rootworm larvae [2]; 0.3 mg/seed (combination: plus Raze 0.13 mg/seed)) | Growth Chamber (16 oz cup) Root Rating (corn rootworm larvae [2]; 0.6 mg/seed) | Growth Chamber (16 oz cup) Root Rating (corn rootworm larvae [2]; 0.8 mg/seed) | Growth Chamber (16 oz cup) Root Rating (corn rootworm larvae [2]; 1.0 mg/seed) | Greenhouse (2 gal pot) Root Rating (corn rootworm larvae [1]; 1.0 mg/seed) |
| --- | --- | --- | --- | --- | --- | --- | --- | --- | --- | --- | --- |
| CN1COCN(Cc2cnc(Cl)s2)/C1=N/[N+](=O)[O-] [Formula II] | 2.73 | 3.08 | 2.96 | 2.90 | 5.30 | 4.30 | 2.70 | 2.10 | 2.30 | 2.10 |  |
| Cc1c(F)c(F)c(COC(=O)[C@@H]2[C@H](/C=C(\Cl)C(F)(F)F)C2(C)C)c(F)c1F [Tefluthrin 50%, tefluthrin, reference compound] |  |  |  |  |  |  |  |  |  | 2.30 | 3.52 |

From patent publication US20020177526A1, “Insecticidal seed coating” (priority 1996, published 2002)
